Results: the NIST ThermoML archive (doi:10.1016/j.jct.2016.05.006)
Where “and” joins values, the source holds several entries; their conditions need not be identical. Equal values may be shown once.

Conditions: Liquid, Vibrating tube method

OCC(O)CO [glycerol]
mass density
Conditions	298.15 K	303.15 K	308.15 K	313.15 K	318.15 K	328.15 K	338.15 K	348.15 K
100 kPa	1258.4 kg/m3 and 1259.1 kg/m3	1255.7 kg/m3	1252.9 kg/m3 and 1253 kg/m3	1250.1 kg/m3	1247 kg/m3	1240.9 kg/m3	1234.8 kg/m3	1228.7 kg/m3
5000 kPa	1260.7 kg/m3 and 1260.6 kg/m3	1257.8 kg/m3	1254.9 kg/m3 and 1254.6 kg/m3	1251.8 kg/m3	1248.5 kg/m3	1242.5 kg/m3	1236.4 kg/m3	1230.4 kg/m3
10000 kPa	1262.3 kg/m3 and 1262.1 kg/m3	1259.3 kg/m3	1256.3 kg/m3 and 1256.1 kg/m3	1253.4 kg/m3	1250.1 kg/m3	1244.1 kg/m3	1238.1 kg/m3	1232.1 kg/m3
15000 kPa	1263.7 kg/m3 and 1263.6 kg/m3	1260.8 kg/m3	1257.9 kg/m3 and 1257.6 kg/m3	1254.9 kg/m3	1251.6 kg/m3	1245.6 kg/m3	1239.6 kg/m3	1233.6 kg/m3
20000 kPa	1265.2 kg/m3 and 1265.1 kg/m3	1262.3 kg/m3	1259.4 kg/m3 and 1259.1 kg/m3	1256.4 kg/m3	1253.2 kg/m3	1247.2 kg/m3	1241.3 kg/m3	1235.3 kg/m3
25000 kPa	1266.6 kg/m3 and 1266.5 kg/m3	1263.7 kg/m3	1260.8 kg/m3 and 1260.6 kg/m3	1257.9 kg/m3	1254.7 kg/m3	1248.8 kg/m3	1242.9 kg/m3	1237.1 kg/m3
